pIC50: −log10 of the molar value. Like-named read-outs stand apart in the source and are kept apart here.
Columns and labels:
[1] = CNS penetration: drug concentration in blood and brain after i.v. dosing; type: in vivo; conditions: iv, female NMRI mouse, t = 5 min; for Kp at 5 min: brain / whole blood; for concentration at 5 min: average of three animals
Procedure: Assessment of the CNS penetration of NMT inhibitors was determined in the female NMRI mouse following i.v. dosing (n=3 per dose group, concentration measured after t=5 min).

human NMT-1 = human NMT-1 (Homo sapiens (Human), UniProt P30419); assay: NMT enzyme inhibition scintillation proximity assay, human NMT-1; type: biochemical
[2] = target: T. brucei N-myristoyl transferase (Trypanosoma brucei brucei (strain 927/4 GUTat10.1), UniProt Q388H8); assay: biochemical; type: biochemical
[3] = system: Trypanosome (T. brucei brucei); assay: In-vitro antitrypanosomal efficacy assay (cell growth, resazurin); type: cell-based
Procedure: To column 12, 200 μl media was added to provide a no cells control. Plates were then incubated at 37° C. in an atmosphere of 5% CO2 for 69 hours, before the addition of 20 μl of 500 μM rezasurin solution, and a further incubation period of 4 hours. […] Concentration effect curves were fitted using non-linear regression using XLFit 4.2 and EC50 values determined.

[4] = target: A. fumigatus N-myristoyl transferase (Aspergillus fumigatus (strain ATCC MYA-4609 / CBS 101355 / FGSC A1100 / Af293) (Neosartorya fumigata), UniProt Q9UVX3); assay: biochemical; type: biochemical; conditions: read-out: IC50 (μM) NMT Enzyme (AfNMT)
[5] = target: L. major N-myristoyl transferase (Leishmania major, UniProt Q4Q5S8); type: biochemical; conditions: Leishmania major NMT; value in parentheses; read-out: IC50 (μM) NMT Enzyme (LmNMT)
HCT116 = assay: In-vitro antiproliferative assay, HCT116; type: cell-based, human; conditions: read-out: IC50 HCT116
MDA-MB-231 = assay: In-vitro antiproliferative assay, MDA-MB-231; type: cell-based, human; conditions: read-out: IC50 MDA-MB-231
HT29 = assay: In-vitro antiproliferative assay, HT29; type: cell-based, human; conditions: Table 4, 72 h, Alamar blue, read-out: IC50 HT-29
NCI-H1299 = assay: In-vitro antiproliferative assay, NCI-H1299; type: cell-based; conditions: Homo sapiens, NCI-H1299, 72 h, read-out: IC50 NCI-H1299
OE19 = assay: In-vitro antiproliferative assay, OE19; type: cell-based; conditions: Homo sapiens, OE19, 72 h, read-out: IC50 OE19
OE21 = assay: In-vitro antiproliferative assay, OE21; type: cell-based; conditions: Homo sapiens, OE21, 72 h, read-out: IC50 OE21
[6] = value printed without enzyme tag in the NMT Enzyme column (taken as T. brucei NMT), read-out: IC50 (μM) NMT Enzyme
[7] = value with no enzyme tag in the cell, taken as T. brucei NMT, read-out: IC50 (μM) NMT Enzyme
[8] = Human NMT-1, value in parentheses, read-out: IC50 (μM) NMT Enzyme (HuNMT-1)
[9] = T. brucei brucei, blood stream form, variant 221
[10] = brain, single i.v. dose 2.0 mg/kg, read-out: Conc (ng/ml in brain)
[11] = whole blood, single i.v. dose 2.0 mg/kg, read-out: Conc (ng/ml in blood)
[12] = Homo sapiens, HCT-116, Table 4, 72 h, Alamar blue
[13] = Homo sapiens, MDA-MB-231, Table 4, 72 h, Alamar blue
[14] = T. brucei NMT, value without parentheses, read-out: IC50 (μM) NMT Enzyme (T. brucei NMT)

Sequence of T. brucei N-myristoyl transferase (Q388H8 1-446): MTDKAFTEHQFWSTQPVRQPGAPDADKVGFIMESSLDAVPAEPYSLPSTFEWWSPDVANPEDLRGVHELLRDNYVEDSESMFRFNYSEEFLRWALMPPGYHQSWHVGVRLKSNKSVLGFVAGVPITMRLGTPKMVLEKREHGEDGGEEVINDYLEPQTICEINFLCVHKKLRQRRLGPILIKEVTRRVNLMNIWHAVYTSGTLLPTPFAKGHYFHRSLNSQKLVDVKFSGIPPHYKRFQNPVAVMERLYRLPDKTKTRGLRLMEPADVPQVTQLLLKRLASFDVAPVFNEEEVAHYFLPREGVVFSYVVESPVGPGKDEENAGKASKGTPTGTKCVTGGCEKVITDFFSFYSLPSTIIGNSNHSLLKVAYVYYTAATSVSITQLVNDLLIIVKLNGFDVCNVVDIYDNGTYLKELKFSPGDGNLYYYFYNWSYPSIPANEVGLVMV
Sequence of L. major N-myristoyl transferase (Q4Q5S8 1-421): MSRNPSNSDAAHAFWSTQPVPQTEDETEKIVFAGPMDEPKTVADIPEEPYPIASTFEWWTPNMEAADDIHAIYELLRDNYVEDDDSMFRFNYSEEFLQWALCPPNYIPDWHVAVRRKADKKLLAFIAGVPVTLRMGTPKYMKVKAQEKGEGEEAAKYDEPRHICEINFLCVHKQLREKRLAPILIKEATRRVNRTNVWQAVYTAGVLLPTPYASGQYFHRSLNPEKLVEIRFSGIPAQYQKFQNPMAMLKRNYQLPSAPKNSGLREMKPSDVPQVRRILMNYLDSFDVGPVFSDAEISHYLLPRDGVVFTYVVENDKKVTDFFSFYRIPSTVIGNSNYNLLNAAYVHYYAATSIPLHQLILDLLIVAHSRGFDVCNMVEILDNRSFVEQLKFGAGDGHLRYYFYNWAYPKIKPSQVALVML
Sequence of human NMT-1 (P30419 whole entry): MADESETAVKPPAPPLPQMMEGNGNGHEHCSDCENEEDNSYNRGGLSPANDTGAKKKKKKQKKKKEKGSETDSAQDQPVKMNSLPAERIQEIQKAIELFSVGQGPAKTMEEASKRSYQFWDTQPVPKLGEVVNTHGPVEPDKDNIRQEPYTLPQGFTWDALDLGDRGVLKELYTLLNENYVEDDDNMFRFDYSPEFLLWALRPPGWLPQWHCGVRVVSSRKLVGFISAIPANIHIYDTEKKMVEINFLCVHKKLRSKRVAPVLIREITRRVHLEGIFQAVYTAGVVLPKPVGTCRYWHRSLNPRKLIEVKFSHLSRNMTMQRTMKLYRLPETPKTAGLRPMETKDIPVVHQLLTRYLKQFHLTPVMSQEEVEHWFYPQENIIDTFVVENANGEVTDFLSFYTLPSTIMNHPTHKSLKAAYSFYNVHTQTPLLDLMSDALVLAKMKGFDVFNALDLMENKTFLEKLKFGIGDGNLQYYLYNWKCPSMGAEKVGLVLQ

SMILES: Cc1nn(C)c(C)c1N(C)[S+](=O)([O-])c1c(Cl)cc(Br)cc1Cl [DDD73490, 4-Bromo-2,6-dichloro-N-methyl-N-(1,3,5-trimethyl-1H-pyrazol-4-yl)-benzenesulfonamide]
- Kp at 5 min ([1]; single i.v. dose 0.33 mg/kg): 6
- concentration at 5 min ([1]; brain, single i.v. dose 0.33 mg/kg, read-out: Conc (ng/ml in brain)): 314 ng/mL
- concentration at 5 min ([1]; whole blood, single i.v. dose 0.33 mg/kg, read-out: Conc (ng/ml in blood)): 52 ng/mL
- IC50 (human NMT-1; HuNMT-1): 4 µM
- IC50 [2, 6]: 0.36 µM
- ED50 (μM) T. brucei ([3]; T. brucei cell growth): 2.8 µM
- IC50 ([4]; AfNMT): 3.9 µM

SMILES: Cc1nn(C)c(C)c1N(C)[S+](=O)([O-])c1ccc(CCCCCCn2ccnc2)cc1 [DDD99754]
- IC50 (human NMT-1; HuNMT-1): 2.1 µM
- IC50 [2, 7]: 0.105 µM
- ED50 (μM) T. brucei ([3]; T. brucei cell growth): >1 µM
- IC50 [4]: > 1 µM

SMILES: Cc1nn(C)c(C)c1N(C(F)F)[S+](=O)([O-])c1c(Cl)cc(CCCCCCn2ccnc2)cc1Cl [DDD100156]
- IC50 [5]: 0.048 µM
- IC50 (human NMT-1; [8]): 1.1 µM
- IC50 ([2]; read-out: IC50 (μM) NMT Enzyme (T. brucei NMT)): 0.016 µM
- ED50 (μM) T. brucei [3, 9]: 0.148 µM

SMILES: CCN(CC)Cc1cccc(-c2ccc([S+](=O)([O-])Nc3c(CC(C)C)nn(C)c3C)cc2)c1 [DDD88638]
- Kp at 5 min ([1]; single i.v. dose 2.0 mg/kg): 1.35
- concentration at 5 min [1, 10]: 378 ng/mL
- concentration at 5 min [1, 11]: 281 ng/mL
- IC50 [2, 7]: 0.009 µM
- ED50 (μM) T. brucei ([3]; T. brucei cell growth): 0.084 µM

SMILES: Cc1c(NS(=O)(=O)c2ccc(CCCC3CCN(C)CC3)cc2)c(CC(C)C)nn1C [DDD99837, N-(3-isobutyl-1,5-dimethyl-1H-pyrazol-4-yl)-4-(3-(1-methylpiperidin-4-yl)propyl)benzenesulfonamide]
- Kp at 5 min ([1]; single i.v. dose 3.0 mg/kg): 0.26
- concentration at 5 min ([1]; brain, single i.v. dose 3.0 mg/kg, read-out: Conc (ng/ml in brain)): 99 ng/mL
- concentration at 5 min ([1]; whole blood, single i.v. dose 3.0 mg/kg, read-out: Conc (ng/ml in blood)): 388 ng/mL
- ED50 (μM) T. brucei [3, 9]: 0.036 µM

SMILES: Cc1nn(C)c(C)c1N(C(F)F)[S+](=O)([O-])c1c(Cl)cc(CCCCC2CCN(C)CC2)cc1Cl [DDD100144, 2,6-dichloro-N-(difluoromethyl)-4-(4-(1-methylpiperidin-4-yl)butyl)-N-(1,3,5-trimethyl-1H-pyrazol-4-yl)benzenesulfonamide]
- pIC50 (HCT116; Homo sapiens, HCT-116, 72 h): 6.55
- concentration at 5 min [1, 10]: 545 ng/mL
- concentration at 5 min [1, 11]: 413 ng/mL
- pIC50 (MDA-MB-231; Homo sapiens, MDA-MB-231, 72 h): 6.66

SMILES: Cc1nn(C)c(C)c1N(C(F)F)[S+](=O)([O-])c1c(Cl)cc(CCCOC2CCN(C)CC2)cc1Cl [DDD100169]
- pIC50 (HCT116; [12]): 6.38
- pIC50 (MDA-MB-231; [13]): 6.60

SMILES: CCCc1nn(C)c(C)c1N[S+](=O)([O-])c1ccc(Br)cc1 [DDD100871]
- IC50 [5]: > 1 µM
- IC50 (human NMT-1; [8]): > 1 µM
- IC50 [2, 14]: 7.95 µM
- ED50 (μM) T. brucei [3, 9]: 51.0 µM

SMILES: Cc1c(N[S+](=O)([O-])c2ccc(CCCCC3CCN(C)CC3)cc2)c(Cc2ccccc2)nn1C [DDD100883]
- IC50 [5]: 0.672 µM
- IC50 (human NMT-1; [8]): > 1 µM
- IC50 [2, 14]: 0.023 µM
- ED50 (μM) T. brucei [3, 9]: 0.427 µM

SMILES: Cc1c(N[S+](=O)([O-])c2ccc(-c3cccc(CN(C)C)c3)cc2)c(CC(C)C)nn1C [DDD99742]
- Kp at 5 min ([1]; single i.v. dose 2.0 mg/kg): 0.66
- concentration at 5 min [1, 10]: 422 ng/mL
- concentration at 5 min [1, 11]: 642 ng/mL
- ED50 (μM) T. brucei ([3]; T. brucei cell growth): 0.019 µM

SMILES: Cc1c(N[S+](=O)([O-])c2c(Cl)cc(CCCC3CCNCC3)cc2Cl)c(CC(C)C)nn1C [DDD90086]
- pIC50 (HCT116; Table 4, 72 h, Alamar blue): 6.04
- pIC50 (MDA-MB-231; Table 4, 72 h, Alamar blue): 6.27
- IC50 [2, 7]: 0.004 µM
- ED50 (μM) T. brucei ([3]; T. brucei cell growth): 0.006 µM
- pIC50 (HT29): 6.55

SMILES: Cc1c(N[S+](=O)([O-])c2ccc(-c3cccc(CN(C)Cc4cccnc4)c3)cc2)c(CC(C)C)nn1C [DDD100796]
- IC50 [5]: > 1 µM
- IC50 (human NMT-1; [8]): > 1 µM
- IC50 [2, 14]: 0.86 µM
- ED50 (μM) T. brucei [3, 9]: >1 µM

SMILES: Cc1nn(C)c(C)c1N(CC(F)(F)F)[S+](=O)([O-])c1c(Cl)cc(CCCC2CCN(C)CC2)cc1Cl [DDD100153, 2,6-dichloro-4-(3-(1-methylpiperidin-4-yl)propyl)-N-(2,2,2-trifluoroethyl)-N-(1,3,5-trimethyl-1H-pyrazol-4-yl)benzenesulfonamide]
- Kp at 5 min ([1]; single i.v. dose 2.0 mg/kg): 0.64
- concentration at 5 min [1, 10]: 171 ng/mL
- concentration at 5 min [1, 11]: 269 ng/mL
- ED50 (μM) T. brucei [3, 9]: 0.023 µM

SMILES: Cc1nn(C)c(C)c1N[S+](=O)([O-])c1c(Cl)cc(-c2cccc(CN3CCN(C)CC3)c2)cc1Cl [DDD88558]
- pIC50 (HCT116; [12]): 6.20
- pIC50 (MDA-MB-231; [13]): 6.35
- ED50 (μM) T. brucei ([3]; T. brucei cell growth): 0.009 µM
- pIC50 (HT29; Homo sapiens, HT-29): 6.75

SMILES: Cc1nn(C)c(C)c1N[S+](=O)([O-])c1ccc(-c2cccc(-c3c[nH]cn3)c2)cc1 [DDD100879]
- IC50 [5]: 1.59 µM
- IC50 (human NMT-1; [8]): 2.6 µM
- IC50 [2, 14]: 0.803 µM
- ED50 (μM) T. brucei [3, 9]: >1 µM

SMILES: Cc1nn(C)c(C)c1N[S+](=O)([O-])c1ccc(-c2cccc(Cn3ccnc3)c2)cc1 [DDD88006, 3′-imidazol-1-ylmethyl-biphenyl-4-sulfonic acid (1,3,6-trimethyl-1H-pyrazol-4-yl)-amide]
- IC50 [2, 7]: 0.35 µM
- ED50 (μM) T. brucei ([3]; T. brucei cell growth): 3.9 µM
- IC50 [4]: 4.2 µM

SMILES: CCN(CC)Cc1cccc(-c2ccc([S+](=O)([O-])N(C)c3c(C)nn(C)c3C)cc2)c1 [DDD88195, 3′-Diethylaminomethyl-biphenyl-4-sulfonic acid methyl-(1,3,5-trimethyl-1H-pyrazol-4-yl)-amide]
- Kp at 5 min ([1]; single i.v. dose 1.0 mg/kg): 0.8
- concentration at 5 min ([1]; brain, single i.v. dose 1.0 mg/kg, read-out: Conc (ng/ml in brain)): 93 ng/mL
- concentration at 5 min ([1]; whole blood, single i.v. dose 1.0 mg/kg, read-out: Conc (ng/ml in blood)): 116 ng/mL
- IC50 [2, 7]: 0.05 µM
- ED50 (μM) T. brucei ([3]; T. brucei cell growth): 0.51 µM

SMILES: COc1cc2c(cc1OC)CN(c1ccc([S+](=O)([O-])Nc3c(C)nn(C)c3C)cn1)CC2 [DDD73476]
- IC50 (human NMT-1; HuNMT-1): 2.3 µM
- IC50 [2, 6]: 0.32 µM
- ED50 (μM) T. brucei ([3]; T. brucei cell growth): 1.8 µM
- IC50 ([4]; AfNMT): 4.8 µM

SMILES: Cc1nn(C)c(C)c1N[S+](=O)([O-])c1ccc(-c2cccc(-c3ncc[nH]3)c2)cc1 [DDD100884]
- IC50 [5]: > 1 µM
- IC50 (human NMT-1; [8]): > 1 µM
- IC50 [2, 14]: 1.08 µM
- ED50 (μM) T. brucei [3, 9]: >1 µM

SMILES: Cc1nn(C)c(C)c1N[S+](=O)([O-])c1ccc(-c2cccc(-c3cn(C)cn3)c2)cc1 [DDD100873]
- IC50 [5]: > 1 µM
- IC50 (human NMT-1; [8]): > 1 µM
- IC50 [2, 14]: 13.8 µM
- ED50 (μM) T. brucei [3, 9]: >1 µM

SMILES: Cc1nn(C)c(C)c1NS(=O)(=O)c1ccc(N2CCc3cccc(N)c3C2)nc1 [DDD73498, 6-(8-Amino-3,4-dihydro-1H-isoquinolin-2-yl)-pyridine-3-sulfonic acid (1,3,5-trimethyl-1H-pyrazol-4-yl)-amide]
- IC50 (human NMT-1; HuNMT-1): 4.3 µM
- IC50 [2, 6]: 0.32 µM
- ED50 (μM) T. brucei ([3]; T. brucei cell growth): 2.6 µM
- IC50 ([4]; AfNMT): 14.7 µM

SMILES: Cc1c(N[S+](=O)([O-])c2c(Cl)cc(-c3ccnc(N4CCNCC4)c3)cc2Cl)c(CC(C)C)nn1C [DDD86481, 2,6-Dichloro-N-(3-isobutyl-1,5-dimethyl-1H-pyrazol-4-yl)-4-(2-piperazin-1-yl-pyridin-4-yl)-benzenesulfonamide]
- pIC50 (NCI-H1299): 7.02
- pIC50 (MDA-MB-231; Homo sapiens, MDA-MB-231, 72 h): 7.33
- pIC50 (OE19): 6.88
- pIC50 (OE21): 7.24

SMILES: Cc1nn(C)c(C)c1N(C(F)F)[S+](=O)([O-])c1c(Cl)cc(CCCC2CCN(C)CC2)cc1Cl [DDD100097, 2,6-dichloro-N-(difluoromethyl)-4-(3-(1-methylpiperidin-4-yl)propyl)-N-(1,3,5-trimethyl-1H-pyrazol-4-yl)benzenesulfonamide]
- Kp at 5 min ([1]; single i.v. dose 2.0 mg/kg): 1.5
- concentration at 5 min [1, 10]: 335 ng/mL
- concentration at 5 min [1, 11]: 224 ng/mL
- ED50 (μM) T. brucei [3, 9]: 0.001 µM

SMILES: Cc1nn(C)c(C)c1N[S+](=O)([O-])c1ccc(-c2cccc(-c3nccn3C)c2)cc1 [DDD100878]
- IC50 [5]: 0.906 µM
- IC50 (human NMT-1; [8]): 2.4 µM
- IC50 [2, 14]: 0.262 µM
- ED50 (μM) T. brucei [3, 9]: >1 µM

From patent US9156811B2 (priority 2008, dated 2015)
